# Paper PMC9482650, “Quantitative fragmentomics allow affinity mapping of interactomes” (Nature Communications, 2022)
# Ends that are not written are not given here. * marks the point of attachment. Biotin = O=C1N[C@H]2[C@H](CS[C@H]2CCCCC(=O)*)N1; ttds = NCCCOCCOCCOCCCNC(=O)CCC(=O)*
# How the values were obtained:
# HeLa cell extract preys = assay: PBM-AP-MS, PBM peptide baits; assay type: binding, human
# Procedure: (§1) HEK293T and HeLa cells were authenticated and found 100% identity to ATCC cat. CRL-3216 and ATCC cat. CCL-2, respectively. Jurkat and HaCat cell lines were not authenticated (original source: ECACC and Deutsches Krebsforschungszentrum DKFZ, respectively). HeLa cells were grown in DMEM (1 g/L glucose, Gibco) medium completed with 5% FCS and 40 μg/mL gentamicin, diluted every 3rd/4th day 1/10. HaCat cells were grown in DMEM (1 g/L glucose, Gibco) medium completed with 10% FCS and 40 μg/mL gentamicin, diluted every 3rd/4th day 1/4. Jurkat cells were grown in RPMI (Gibco) medium completed with 10% FCS and 40 μg/mL gentamicin, diluted every 3rd/4th day 1/12. All cells were kept at 37 °C and 5% CO2. For proteomics analyses cells were seeded on T-175 flasks. After they reached confluency, adherent cells were washed with PBS once and collected by scraping with ice-cold lysis buffer (Hepes-KOH pH 7.5 50 mM, NaCl 150 mM, Triton X-100 1%, complete EDTA-free protease inhibitor cocktail 1×, EDTA 2 mM, TCEP 5 mM, glycerol 10%). Jurkat cells were collected by 1000 g × centrifugation, washed once with PBS, then collected by 1000 g × 5 min centrifugation again and lysed in ice-cold lysis buffer. Lysates were sonicated 4 × 20 s with 1 s long pulses on ice, then incubated rotating at 4 °C for 30 min. Lysates were centrifuged at 12,000 rpm 4 °C for 20 min and supernatant was kept for further analysis. Concentration determination was carried out by standard Bradford method (Bio-Rad Protein Assay Dye Reagent #5000006) using BSA (MP BIomedicals #160069) as control on a Bio-Rad SmartSpec 3000 spectrophotometer instrument.
# (§2) For PBM-AP-MS experiments, 30 μl streptavidin resin was mixed with biotin or peptide at 50–60 μM concentration in 6–6.5 resin volume for 60 min to achieve resin saturation. For PDZ-AP-MS experiments, 30 μl streptavidin resin was mixed with biotinylated MBP or MBP-PDZ at 40-50 μM concentration in >1000× resin volume for 60 min to achieve resin saturation. After saturation, resins were washed a single time (ten resin volume, holdup buffer), and were depleted with biotin (1 mM biotin, 5–10 resin volume, 10 min). Finally, resins were washed two times. 0.5 ml 2 mg/ml cell lysate was added to the dry resin (1 mg total input) and were incubated at 4 °C for 2 h. Then, the beads were washed three times with 10 resin volume buffer containing: 50 mM TRIS pH 8.5, 150 mM NaCl, 1% TritonX-100, 10× complete EDTA-free protease inhibitor cocktail, 2 mM EDTA, 1 mM TCEP. Then, the beads were washed two times with ten resin volume buffer containing: 50 mM TRIS pH 8.5, 150 mM NaCl, 1 mM TCEP. Finally, captured protein was eluted from the resin in two steps and the eluted fractions were pooled. For each elution the beads were incubated for 30 min with three resin volume buffer containing: 20 mM TRIS pH8.5, 100 mM NaCl, 500 μM TCEP, 8 M Urea. Between each step, the beads were separated by mild centrifugation and the supernatant was removed by gentle pipetting.
# (§3) The samples were precipitated with TCA 20% overnight at 4 °C and centrifuged at 14,000 rpm for 10 min at 4 °C. The protein pellets were washed twice with 1 mL cold acetone and air dried. The protein extracts were solubilized in urea 8 M, reduced with 5 mM TCEP for 30 min, and alkylated with 10 mM iodoacetamide for 30 min in the dark. Double digestion was performed at 37 °C with 500 ng endoproteinase Lys-C for 4 h, followed by fourfold dilution and an overnight digestion with 500 ng trypsin. Peptide mixtures were then desalted on C18 spin-column and dried on Speed-Vacuum.
# (§4) Samples were analyzed using an Ultimate 3000 nano-RSLC (Thermo Scientific, San Jose California) coupled in line with a LTQ-Orbitrap ELITE mass spectrometer via a nano-electrospray ionization source (Thermo Scientific, San Jose California). […]
# HaCat cell extract preys = assay: PBM-AP-MS, PBM peptide baits; assay type: binding, human
# Procedure: as §1, §2, §3, §4
substance,measurement,setting,value
HPV35E6 ({Biotin-ttds}-SKPTRRETEV),Enrichment values compared to biotin controls,"HeLa cell extract preys; prey AHNAK, PBM peptide bait",0.9
same,Enrichment values compared to biotin controls,"HeLa cell extract preys; prey ARHGAP21, PBM peptide bait",1.3
same,Enrichment values compared to biotin controls,"HeLa cell extract preys; prey ARHGEF12, PBM peptide bait",1.1
same,Enrichment values compared to biotin controls,"HeLa cell extract preys; prey CASK, PBM peptide bait",4.9
same,Enrichment values compared to biotin controls,"HeLa cell extract preys; prey DLG1, PBM peptide bait",6.4
same,Enrichment values compared to biotin controls,"HeLa cell extract preys; prey DLG3, PBM peptide bait",5.8
same,Enrichment values compared to biotin controls,"HeLa cell extract preys; prey DLG5, PBM peptide bait",1.3
same,Enrichment values compared to biotin controls,"HeLa cell extract preys; prey DVL2, PBM peptide bait",0.8
same,Enrichment values compared to biotin controls,"HeLa cell extract preys; prey GOPC, PBM peptide bait",1.4
same,Enrichment values compared to biotin controls,"HeLa cell extract preys; prey HTRA1, PBM peptide bait",2.0
same,Enrichment values compared to biotin controls,"HeLa cell extract preys; prey InaDl, PBM peptide bait",1.3
same,Enrichment values compared to biotin controls,"HeLa cell extract preys; prey LAP2, PBM peptide bait",1.4
same,Enrichment values compared to biotin controls,"HeLa cell extract preys; prey LIN7C, PBM peptide bait",131.1
same,Enrichment values compared to biotin controls,"HeLa cell extract preys; prey LMO7, PBM peptide bait",2.0
same,Enrichment values compared to biotin controls,"HeLa cell extract preys; prey MPDZ, PBM peptide bait",2.5
same,Enrichment values compared to biotin controls,"HeLa cell extract preys; prey MPP5, PBM peptide bait",4.0
same,Enrichment values compared to biotin controls,"HeLa cell extract preys; prey MPP6, PBM peptide bait",1.1
same,Enrichment values compared to biotin controls,"HeLa cell extract preys; prey MPP7, PBM peptide bait",11.7
same,Enrichment values compared to biotin controls,"HeLa cell extract preys; prey NHERF2, PBM peptide bait",0.9
same,Enrichment values compared to biotin controls,"HeLa cell extract preys; prey NHERF3, PBM peptide bait",0.9
same,Enrichment values compared to biotin controls,"HeLa cell extract preys; prey PDLIM5, PBM peptide bait",0.8
same,Enrichment values compared to biotin controls,"HeLa cell extract preys; prey PDLIM7, PBM peptide bait",0.9
same,Enrichment values compared to biotin controls,"HeLa cell extract preys; prey PSMD9, PBM peptide bait",0.6
same,Enrichment values compared to biotin controls,"HeLa cell extract preys; prey SCRIB, PBM peptide bait",217.5
same,Enrichment values compared to biotin controls,"HeLa cell extract preys; prey SIPA1L1, PBM peptide bait",0.5
same,Enrichment values compared to biotin controls,"HeLa cell extract preys; prey SNTA1, PBM peptide bait",0.5
same,Enrichment values compared to biotin controls,"HeLa cell extract preys; prey SNTB1, PBM peptide bait",8.8
same,Enrichment values compared to biotin controls,"HeLa cell extract preys; prey SNTB2, PBM peptide bait",48.7
same,Enrichment values compared to biotin controls,"HeLa cell extract preys; prey SNX27, PBM peptide bait",1.4
same,Enrichment values compared to biotin controls,"HeLa cell extract preys; prey SYNJ2BP, PBM peptide bait",63.6
same,"Fold changes HeLa, SYNJ2BP","HeLa cell extract preys; prey SYNJ2BP, PBM peptide bait",63.6
same,Enrichment values compared to biotin controls,"HeLa cell extract preys; prey TJP1, PBM peptide bait",0.9
same,Enrichment values compared to biotin controls,"HeLa cell extract preys; prey TX1B3, PBM peptide bait",15.3
same,Enrichment values compared to biotin controls,"HaCat cell extract preys; prey AHNAK2, PBM peptide bait",0.845
same,Enrichment values compared to biotin controls,"HaCat cell extract preys; prey AHNAK, PBM peptide bait",0.7
same,Enrichment values compared to biotin controls,"HaCat cell extract preys; prey DLG1, PBM peptide bait",5.3
same,Enrichment values compared to biotin controls,"HaCat cell extract preys; prey GORASP2, PBM peptide bait",0.7
same,Enrichment values compared to biotin controls,"HaCat cell extract preys; prey InaDl, PBM peptide bait",0.6
same,Enrichment values compared to biotin controls,"HaCat cell extract preys; prey LAP2, PBM peptide bait",0.849
same,Enrichment values compared to biotin controls,"HaCat cell extract preys; prey LIN7C, PBM peptide bait",269.9
same,Enrichment values compared to biotin controls,"HaCat cell extract preys; prey MAGI3, PBM peptide bait",4.3
same,Enrichment values compared to biotin controls,"HaCat cell extract preys; prey MPP5, PBM peptide bait",0.7
same,Enrichment values compared to biotin controls,"HaCat cell extract preys; prey MPP6, PBM peptide bait",0.8
same,Enrichment values compared to biotin controls,"HaCat cell extract preys; prey MPP7, PBM peptide bait",30.8
same,Enrichment values compared to biotin controls,"HaCat cell extract preys; prey NHERF2, PBM peptide bait",0.665
same,Enrichment values compared to biotin controls,"HaCat cell extract preys; prey NHERF, PBM peptide bait",0.215
same,Enrichment values compared to biotin controls,"HaCat cell extract preys; prey PDLIM1, PBM peptide bait",0.569
same,Enrichment values compared to biotin controls,"HaCat cell extract preys; prey PDLIM2, PBM peptide bait",1.6
same,Enrichment values compared to biotin controls,"HaCat cell extract preys; prey PDLIM4, PBM peptide bait",1.0
same,Enrichment values compared to biotin controls,"HaCat cell extract preys; prey PDLIM5, PBM peptide bait",1.1
same,Enrichment values compared to biotin controls,"HaCat cell extract preys; prey PDLIM7, PBM peptide bait",0.422
same,Enrichment values compared to biotin controls,"HaCat cell extract preys; prey PTPN3, PBM peptide bait",0.9
same,Enrichment values compared to biotin controls,"HaCat cell extract preys; prey SCRIB, PBM peptide bait",3.1
same,Enrichment values compared to biotin controls,"HaCat cell extract preys; prey SNTB2, PBM peptide bait",7.5
same,Enrichment values compared to biotin controls,"HaCat cell extract preys; prey SNX27, PBM peptide bait",3.3
same,Enrichment values compared to biotin controls,"HaCat cell extract preys; prey SYNJ2BP, PBM peptide bait",25.2
same,"Fold changes HaCat, SYNJ2BP","HaCat cell extract preys; prey SYNJ2BP, PBM peptide bait",25.2
same,Enrichment values compared to biotin controls,"HaCat cell extract preys; prey TJP1, PBM peptide bait",1.3
same,Enrichment values compared to biotin controls,"HaCat cell extract preys; prey TJP2, PBM peptide bait",1.8
same,Enrichment values compared to biotin controls,"HaCat cell extract preys; prey TX1B3, PBM peptide bait",3.3
